Measurements: US10538555B2, “Macrocyclic inhibitors of the PD-1/PD-L1 and CD80(B7-1)/PD-L1 protein/protein interactions” (BRISTOL-MYERS SQUIBB COMPANY, priority 2014, dated 2020)
pIC50: −log10 of the molar value. *1 amine or outer side, *2 acyl side, *3 side chain or, on linkers, in order; H or OH if unused. Where a SMILES comes first, the peptide text is derived from it. Bridges are numbered along the chain shown (N, C = ends). [ ]: non-standard residue; d: D form. ξ: configuration not given here. X3 = O=C(C[C@@H](CO)C(=O)[*:2])[C@H](Cc1c[nH]c2ccccc12)N[*:1]; Lac(3-(indol-3-yl)) = O=C(O)[C@@H](O)Cc1c[nH]c2ccccc12; X2 = NC(=O)C[C@H](N[*:1])C(=O)C1CCC[C@H]1C(=O)[*:2]; Phe(3,4,5-F3) = N[C@@H](Cc1cc(F)c(F)c(F)c1)C(=O)O; NMePhe(4-Me) = CN[C@@H](Cc1ccc(C)cc1)C(=O)O; NMePhe(4-F) = CN[C@@H](Cc1ccc(F)cc1)C(=O)O; Phe(4-F) = N[C@@H](Cc1ccc(F)cc1)C(=O)O; Bta = N[C@@H](Cc1csc2ccccc12)C(=O)O; Hyp = O=C(O)[C@@H]1C[C@@H](O)CN1; NMeF = CN[C@@H](Cc1ccccc1)C(=O)O; dHyp = O=C(O)[C@H]1C[C@H](O)CN1; NMeNle = CCCC[C@H](NC)C(=O)O; dNle = CCCC[C@@H](N)C(=O)O; NMeA = CN[C@@H](C)C(=O)O; Orn = NCCC[C@H](N)C(=O)O; Dab = NCC[C@H](N)C(=O)O; ξC = NC(CS)C(=O)O

Target: T1, Human PD-L1/PD-1 (Homo sapiens, UniProt Q9NZQ7)
T1 construct: TVMV protease cleavage site (C); made in house; host or cells: HEK293T cells
Test: HTRF Human PD-L1/PD-1 binding assay (PD-1-Ig/PD-L1-His)
Settings: PD-L1-His 10 nM, PD-1-Ig 20 nM; class symbol; read-out: HTRF Human PD-L1/PD-1 Binding Assay IC50 Range
Method in brief: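 HTRF competition using HEK293T-expressed human PD-1(25-167)-Ig at 20 nM and PD-L1(18-239)-His at 10 nM, compound incubated first with PD-L1 for 15 min, then with PD-1 for 15 min. Signal read as 665/620 nm ratio 30 min after adding Eu anti-Ig and APC anti-His antibodies.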

T1 sequence (Q9NZQ7 with tags, fused parts or gaps): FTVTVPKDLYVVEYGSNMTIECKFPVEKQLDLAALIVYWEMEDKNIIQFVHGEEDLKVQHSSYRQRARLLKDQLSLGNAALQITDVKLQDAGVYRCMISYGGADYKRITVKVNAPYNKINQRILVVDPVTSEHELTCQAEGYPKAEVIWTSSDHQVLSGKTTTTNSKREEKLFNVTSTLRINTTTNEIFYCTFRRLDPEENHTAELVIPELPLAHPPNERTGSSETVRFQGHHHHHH

Compound | pIC50
CCCC[C@H]1C(=O)N2CCC[C@@H]2C(=O)N[C@@H](CC(=O)O)C(=O)N[C@@H](C(C)C)C(=O)N(C)[C@@H](Cc2ccc(F)cc2)C(=O)N[C@@H](CCC(=O)O)C(=O)N2CCC[C@@H]2C(=O)N[C@@H](Cc2c[nH]c3ccccc23)C(=O)N[C@@H](Cc2ccc(O)cc2)C(=O)N[C@@H](CC(C)C)C(=O)N[C@H](C(=O)NCC(N)=O)CSCC(=O)N[C@@H](Cc2ccc(F)cc2)C(=O)N(C)[C@@H](Cc2ccccc2)C(=O)N1C [Example 10111] ({CH2CO}-[Phe(4-F)][NMeF][NMeNle][dP]DV[NMePhe(4-F)]E[dP]WYLCG-NH2; thioether N-13) | 8.00 to 9.00
CCCC[C@H]1C(=O)N2CCC[C@@H]2C(=O)N[C@@H](CC(=O)O)C(=O)N[C@@H](C(C)C)C(=O)N(C)[C@@H](Cc2ccc(C)cc2)C(=O)N[C@@H](CCCN)C(=O)N2CCC[C@@H]2C(=O)N[C@@H](Cc2c[nH]c3ccccc23)C(=O)N[C@@H](Cc2ccc(O)cc2)C(=O)N[C@@H](CC(C)C)C(=O)N[C@H](C(=O)NCC(N)=O)CSCC(=O)N[C@@H](Cc2ccc(F)cc2)C(=O)N(C)[C@@H](Cc2ccccc2)C(=O)N1C [Example 10112] ({CH2CO}-[Phe(4-F)][NMeF][NMeNle][dP]DV[NMePhe(4-Me)][Orn][dP]WYLCG-NH2; thioether N-13) | 6.00 to 7.00
CCCC[C@H]1C(=O)N2CCC[C@@H]2C(=O)N[C@@H](CC(=O)O)C(=O)N[C@@H](C(C)C)C(=O)N(C)[C@@H](Cc2ccc(C)cc2)C(=O)N[C@@H](CCN)C(=O)N2CCC[C@@H]2C(=O)N[C@@H](Cc2c[nH]c3ccccc23)C(=O)N[C@@H](Cc2ccc(O)cc2)C(=O)N[C@@H](CC(C)C)C(=O)N[C@H](C(=O)NCC(N)=O)CSCC(=O)N[C@@H](Cc2ccc(F)cc2)C(=O)N(C)[C@@H](Cc2ccccc2)C(=O)N1C [Example 10113] ({CH2CO}-[Phe(4-F)][NMeF][NMeNle][dP]DV[NMePhe(4-Me)][Dab][dP]WYLCG-NH2; thioether N-13) | 6.00 to 7.00
CCCC[C@H]1C(=O)N2CCC[C@@H]2C(=O)N[C@@H](CC(=O)O)C(=O)N[C@@H](C(C)C)C(=O)N(C)[C@@H](Cc2ccc(C)cc2)C(=O)N[C@@H](CC(=O)O)C(=O)N2CCC[C@@H]2C(=O)N[C@@H](Cc2c[nH]c3ccccc23)C(=O)N[C@@H](Cc2ccc(O)cc2)C(=O)N[C@@H](CC(C)C)C(=O)N[C@H](C(=O)NCC(N)=O)CSCC(=O)N[C@@H](Cc2ccc(F)cc2)C(=O)N(C)[C@@H](Cc2ccccc2)C(=O)N1C [Example 10114] ({CH2CO}-[Phe(4-F)][NMeF][NMeNle][dP]DV[NMePhe(4-Me)]D[dP]WYLCG-NH2; thioether N-13) | 6.00 to 7.00
CCCC[C@H]1C(=O)N2CCC[C@@H]2C(=O)N[C@@H](CC(=O)O)C(=O)N[C@@H](C(C)C)C(=O)N(C)[C@@H](Cc2ccc(C)cc2)C(=O)N[C@@H](CCC(=O)O)C(=O)N2CCC[C@@H]2C(=O)N[C@@H](Cc2c[nH]c3ccccc23)C(=O)N[C@@H](Cc2ccc(O)cc2)C(=O)N[C@@H](CC(C)C)C(=O)N[C@H](C(=O)NCC(N)=O)CSCC(=O)N[C@@H](Cc2ccc(F)cc2)C(=O)N(C)[C@@H](Cc2ccccc2)C(=O)N1C [Example 10115] ({CH2CO}-[Phe(4-F)][NMeF][NMeNle][dP]DV[NMePhe(4-Me)]E[dP]WYLCG-NH2; thioether N-13) | 6.00 to 7.00
CCCC[C@H]1C(=O)N2C[C@@H](O)C[C@@H]2C(=O)N[C@@H](CC(=O)O)C(=O)N[C@@H](C(C)C)C(=O)N(C)[C@@H](Cc2ccc(F)cc2)C(=O)N[C@@H](CCC(=O)O)C(=O)N2CCC[C@@H]2C(=O)N[C@@H](Cc2c[nH]c3ccccc23)C(=O)N[C@@H](Cc2ccc(O)cc2)C(=O)N[C@@H](CC(C)C)C(=O)N[C@H](C(=O)NCC(N)=O)CSCC(=O)N[C@@H](Cc2cc(F)c(F)c(F)c2)C(=O)N(C)[C@@H](Cc2ccccc2)C(=O)N1C [Example 10116] ({CH2CO}-[Phe(3,4,5-F3)][NMeF][NMeNle][dHyp]DV[NMePhe(4-F)]E[dP]WYLCG-NH2; thioether N-13) | 8.00 to 9.00
CCCC[C@H]1C(=O)N2C[C@@H](O)C[C@@H]2C(=O)N[C@@H](CC(=O)O)C(=O)N[C@@H](C(C)C)C(=O)N(C)[C@@H](Cc2ccc(C)cc2)C(=O)N[C@@H](CCC(=O)O)C(=O)N2CCC[C@@H]2C(=O)N[C@@H](Cc2c[nH]c3ccccc23)C(=O)N[C@@H](Cc2ccc(O)cc2)C(=O)N[C@@H](CC(C)C)C(=O)N[C@H](C(=O)NCC(N)=O)CSCC(=O)N[C@@H](Cc2cc(F)c(F)c(F)c2)C(=O)N(C)[C@@H](Cc2ccccc2)C(=O)N1C [Example 10117] ({CH2CO}-[Phe(3,4,5-F3)][NMeF][NMeNle][dHyp]DV[NMePhe(4-Me)]E[dP]WYLCG-NH2; thioether N-13) | 6.00 to 7.00
CCCC[C@H]1C(=O)N2C[C@@H](O)C[C@@H]2C(=O)N[C@@H](CC(=O)O)C(=O)N[C@@H](C(C)C)C(=O)N(C)[C@@H](Cc2ccc(F)cc2)C(=O)N[C@@H](CCCN)C(=O)N2CCC[C@@H]2C(=O)N[C@@H](Cc2c[nH]c3ccccc23)C(=O)N[C@@H](Cc2ccc(O)cc2)C(=O)N[C@@H](CC(C)C)C(=O)N[C@H](C(=O)NCC(N)=O)CSCC(=O)N[C@@H](Cc2cc(F)c(F)c(F)c2)C(=O)N(C)[C@@H](Cc2ccccc2)C(=O)N1C [Example 10118] ({CH2CO}-[Phe(3,4,5-F3)][NMeF][NMeNle][dHyp]DV[NMePhe(4-F)][Orn][dP]WYLCG-NH2; thioether N-13) | 8.00 to 9.00
CCCC[C@H]1C(=O)N2C[C@@H](O)C[C@@H]2C(=O)N[C@@H](CC(=O)O)C(=O)N[C@@H](C(C)C)C(=O)N(C)[C@@H](Cc2ccc(C)cc2)C(=O)N[C@@H](CCCN)C(=O)N2CCC[C@@H]2C(=O)N[C@@H](Cc2c[nH]c3ccccc23)C(=O)N[C@@H](Cc2ccc(O)cc2)C(=O)N[C@@H](CC(C)C)C(=O)N[C@H](C(=O)NCC(N)=O)CSCC(=O)N[C@@H](Cc2cc(F)c(F)c(F)c2)C(=O)N(C)[C@@H](Cc2ccccc2)C(=O)N1C [Example 10119] ({CH2CO}-[Phe(3,4,5-F3)][NMeF][NMeNle][dHyp]DV[NMePhe(4-Me)][Orn][dP]WYLCG-NH2; thioether N-13) | 6.00 to 7.00
CCCC[C@H]1C(=O)N2C[C@@H](O)C[C@@H]2C(=O)N[C@@H](CC(=O)O)C(=O)N[C@@H](C(C)C)C(=O)N(C)[C@@H](Cc2ccc(F)cc2)C(=O)N[C@@H](CCCN)C(=O)N2CCC[C@@H]2C(=O)N[C@@H](Cc2c[nH]c3ccccc23)C(=O)N[C@@H](Cc2ccc(O)cc2)C(=O)N[C@@H](CCCN)C(=O)N[C@H](C(=O)NCC(N)=O)CSCC(=O)N[C@@H](Cc2cc(F)c(F)c(F)c2)C(=O)N(C)[C@@H](Cc2ccccc2)C(=O)N1C [Example 10120] ({CH2CO}-[Phe(3,4,5-F3)][NMeF][NMeNle][dHyp]DV[NMePhe(4-F)][Orn][dP]WY[Orn]CG-NH2; thioether N-13) | 8.00 to 9.00
CCCC[C@H]1C(=O)N2C[C@@H](O)C[C@@H]2C(=O)N[C@@H](CC(=O)O)C(=O)N[C@@H](C(C)C)C(=O)N(C)[C@@H](Cc2ccc(C)cc2)C(=O)N[C@@H](CCCN)C(=O)N2CCC[C@@H]2C(=O)N[C@@H](Cc2c[nH]c3ccccc23)C(=O)N[C@@H](Cc2ccc(O)cc2)C(=O)N[C@@H](CCCN)C(=O)N[C@H](C(=O)NCC(N)=O)CSCC(=O)N[C@@H](Cc2cc(F)c(F)c(F)c2)C(=O)N(C)[C@@H](Cc2ccccc2)C(=O)N1C [Example 10121] ({CH2CO}-[Phe(3,4,5-F3)][NMeF][NMeNle][dHyp]DV[NMePhe(4-Me)][Orn][dP]WY[Orn]CG-NH2; thioether N-13) | 6.00 to 7.00
CCCC[C@H]1NC(=O)[C@H](Cc2csc3ccccc23)NC(=O)[C@H](CO)NC(=O)[C@H](Cc2c[nH]c3ccccc23)OC(=O)[C@@H]2CCCN2C(=O)[C@H](CC(C)C)NC(=O)[C@H](Cc2cnc[nH]2)NC(=O)[C@@H]2CCCN2C(=O)[C@H](CC(N)=O)NC(=O)[C@H](C)N(C)C(=O)[C@H](Cc2ccc(O)cc2)NC(=O)CSCC(C(=O)NCC(N)=O)NC(=O)[C@H](CCCNC(=N)N)NC(=O)[C@H](CCCC)N(C)C1=O (stereo partly drawn) [Example 10122] ({CH2CO}-Y[NMeA]NPHLP[Lac(3-(indol-3-yl))]S[Bta][dNle][NMeNle]R[ξC]G-NH2; thioether N-14) | 5.00 to 6.00
CCCC[C@H]1NC(=O)[C@H](Cc2csc3ccccc23)NC(=O)[C@H](CO)NC(=O)[C@H](Cc2c[nH]c3ccccc23)NC(=O)[C@@H]2C[C@@H](O)CN2C(=O)[C@H](CC(C)C)NC(=O)[C@H](Cc2cnc[nH]2)NC(=O)[C@@H]2CCCN2C(=O)[C@H](CC(N)=O)NC(=O)[C@H](C)N(C)C(=O)[C@H](Cc2ccc(O)cc2)NC(=O)CSCC(C(=O)NCC(N)=O)NC(=O)[C@H](CCCNC(=N)N)NC(=O)[C@H](CCCC)N(C)C1=O (stereo partly drawn) [Example 10123] ({CH2CO}-Y[NMeA]NPHL[Hyp]WS[Bta][dNle][NMeNle]R[ξC]G-NH2; thioether N-14) | 6.00 to 7.00
CCCC[C@H]1NC(=O)[C@H](Cc2c[nH]c3ccccc23)NC(=O)[C@H](CO)NC(=O)[C@H](Cc2c[nH]c3ccccc23)NC(=O)[C@@H]2C[C@@H](O)CN2C(=O)[C@H](CCC(N)=O)NC(=O)[C@H](Cc2cnc[nH]2)NC(=O)[C@@H]2CCCN2C(=O)[C@H](CC(N)=O)NC(=O)[C@H](C)N(C)C(=O)[C@H](Cc2ccc(O)cc2)NC(=O)CSCC(C(=O)NCC(N)=O)NC(=O)[C@H](CCCNC(=N)N)NC(=O)[C@H](CCCC)N(C)C1=O (stereo partly drawn) [Example 10126] ({CH2CO}-Y[NMeA]NPHQ[Hyp]WSW[dNle][NMeNle]R[ξC]G-NH2; thioether N-14) | 5.00 to 6.00
CCCC[C@H]1NC(=O)[C@H](Cc2c[nH]c3ccccc23)NC(=O)[C@H](CO)CC(=O)[C@H](Cc2c[nH]c3ccccc23)NC(=O)[C@@H]2C[C@@H](O)CN2C(=O)[C@H](CCC(N)=O)NC(=O)[C@H](Cc2cnc[nH]2)NC(=O)[C@@H]2CCCC2C(=O)[C@H](CC(N)=O)NC(=O)[C@H](C)N(C)C(=O)[C@H](Cc2ccc(O)cc2)NC(=O)CSCC(C(=O)NCC(N)=O)NC(=O)[C@H](CCC(=O)O)NC(=O)[C@H](CCCC)N(C)C1=O (stereo partly drawn) [Example 10127] ({CH2CO}-Y[NMeA][X2]HQ[Hyp][X3]W[dNle][NMeNle]E[ξC]G-NH2; thioether N-12) | 5.00 to 6.00
